{"source": "patent US11311576B2", "about": "“Methods of use for CAR T cells” (Seattle Children's Hospital, priority 2018, dated 2022)", "key": {"HOS-FRα tumor": {"test_system": "HOS-FRα tumor", "test": "CRS toxicity and sodium fluorescein rescue in HOS-FRα tumor-bearing mice", "type": "in vivo", "conditions": "~2.5 million CD8 and ~33 million CD4 E2 CAR-T cells; days 4 and 11, after EC17 500 and 100 nmol/kg on days 3 and 10", "protocol": "All animal care and use were performed according to NIH guidelines and in compliance with protocols approved by the Purdue University Animal Use and Care Committee. Female 4 to 5-week-old NOD/SCID gamma (NSG™) mice (stock number: 005557) were purchased from The Jackson Laboratory (Bar Harbor, Me.). Unless specifically indicated, all animals were maintained on a FA-deficient diet (TestDiet, St. Louis, Mo.) upon arrival and throughout the study. To establish subcutaneous xenografts, MDA-MB-231 and HOS-FRα were implanted in the right flank region at 2.5×10^6 and 1×10^6 cells per animal, respectively. For intravenous xenografts, THP1-FRb cells were inoculated at 5×10^6 cells per animal. Subcutaneous tumors were measured 2-3 times per week with a caliper and calculated using the ellipsoidal formula […]. […] All animal doses (CAR-T cells, EC17, sodium fluorescein) were given intravenously.\nDepending on the CAR-T cell dose and how EC17 is administered, tumor-bearing mice receiving FITC-specific CAR-T cells can experience severe CRS and varying degrees of body weight loss. […] On the days immediately following each EC17 dose, animals were scored and rescue agents such as sodium fluorescein, folic acid and leucovorin were used to mitigate CRS toxicity. […]"}, "HOS-143b": {"test_system": "HOS-143b", "test": "Specific lysis at varying E/T ratios with 10 nM EC17, FR-negative cells", "type": "cell-based, human", "conditions": "10 nM EC17, E2-CAR-T cells, 48 hours of co-culture", "protocol": "After 24 hours of co-culture, supernatants were harvested to determine tumor cell killing. To study the kinetics of T cell activation and FR correlation in vitro (FIG. 60A, FIG. 60B, FIG. 60C, FIG. 60D, FIG. 60E), co-cultures were carried out in FR+/− cell lines at varying E/T ratios (1:27, 1:9, 1:3, 1:1, 3:1) in the continuous presence of 10 nM EC17. The kinetics of tumor cell killing were quantified after 16 and 48 hours of co-culture. Meanwhile, a portion of the supernatants was taken after 44 hours of co-culture for measurement of IFNg, IL-2 and TNFα. Using Promega's CytoTox 96® LDH assay kit, target cell killing was quantified and expressed as specific lysis (%) which was normalized to basal levels in the absence of EC17 at defined E/T ratios. The LEGENDplex™ human Th1 cytokine panel (BioLegend, San Diego, Calif.) was used to determine CAR-T cell derived cytokines.\nSpecific lysis (%) was quantified after 16 and 48 hours of co-culture, and Th1 cytokines (IFNg, TNFa) in culture media were measured after 44 hours of co-culture. […] It generally took a longer time (48 hours) and a higher E/T ratio (≥1:1) to see significant activity in the lowest FR-expressing OV90 cells (FIG. 60A). The high FR-expressing KB cells responded very slowly and also required a higher E/T ratio (≥1:3) and longer exposure time to cause significant cell death (FIG. 60B, left plot)."}, "E2-CAR-T cells": {"test_system": "E2-CAR-T cells", "test": "3H-EC17 uptake by E2-CAR-T cells", "type": "binding, human", "conditions": "read-out: Kd of 3H-EC17 (estimated); unsorted E2-CAR-T cells (~24% EGFRt+, ~95:5 CD8/CD4), 2 hour at room temperature", "excerpt": "(calculated from the numbers of molecules bound per cell).\nPrinciple Components of CAM Controlled CAR T Cell Therapy. The basic components of the CAR-T cell therapy involve FITC as the pseudo tumor antigen, the high affinity EC17 CAM (a CAM is equivalent to a bridge or the “compound” in this application), and a rationally designed anti-FITC CAR and CAR-modified T cells. The EC17 has already been tested in the clinic for immunotherapy and optical imaging purposes. To directly quantify its bispecific binding affinities, ^3H-EC17 was synthesized and radioligand binding assays were carried out on KB and CHO-β cell lines representing FRα+ and FRβ+ target cells, respectively, and on unsorted EGFRt CAR-T cells representing the effector cells."}, "MDA-MB-231 tumors": {"test_system": "MDA-MB-231 tumors", "test": "Dietary folate effect on antitumor activity and CRS toxicity, MDA-MB-231 tumors", "type": "in vivo, NSG mice", "protocol": "To study the effect of high dietary folate (FIG. 63A, FIG. 63B, FIG. 63C, FIG. 63D), two sets of NSG mice were placed on either a FA-replete diet (4 mg/kg, Envigo, Indianapolis, Ind.) or a FA-deficient diet (TestDiet, St. Louis, Mo.) upon arrival. On day 0, both sets of the mice received ˜10 million of the same “clinical facsimile” CAR-T cells followed by no EC17 or EC17 SIW at 500 nmol/kg starting on day 3. On the first day of EC17 administration, MDA-MB-231 tumors size averaged around ˜549±184 mm^3 (280-918 mm3) in FA-replete mice, and ˜559±165 mm^3 (356-961 mm^3) in FA-deficient mice.\nPreviously, it was shown that administration of FA or a FA ligand helped reduce the severity of CRS in MDA-MB-231 tumor-bearing mice. To test the long-term effect of dietary folate, mice were maintained on defined diets for ˜73 days and used when their tumors reached ˜549±184 mm3 (280-918 mm^3) in FA-replete mice, and ˜559±165 mm^3 (356-961 mm^3) in FA-deficient mice (FIG. 63A, FIG. 63B, FIG. 63C, FIG. 63D)."}, "[1]": {"conditions": "FA-deficient diet, each subsequent EC17 dose"}, "[2]": {"conditions": "FA-replete mice, CAR-T cells plus EC17"}}}
{"compound": "NC1=NC2N=CC(CNc3ccc(C(=O)N[C@@H](CCC(=O)NCCNC(=S)Nc4ccc(-c5c6ccc(=O)cc-6oc6cc(O)ccc56)c(C(=O)O)c4)C(=O)O)cc3)=NC2C(=O)N1", "note": "(some centres unmarked) [EC17, FA-(g)-ethylenediamine-FITC]", "values": [{"measurement": "CRS grade", "setting": "HOS-FRα tumor", "value": "1-2"}, {"measurement": "specific lysis of FR-negative cells", "setting": "HOS-143b", "value": "essentially unharmed"}, {"measurement": "Kd", "setting": "E2-CAR-T cells", "value": "~0.13", "unit": "µM"}, {"measurement": "CRS grade", "setting": "MDA-MB-231 tumors; [1]", "value": "2-3"}, {"measurement": "body weight loss", "setting": "MDA-MB-231 tumors; [1]", "value": "≤ 11.4", "unit": "%"}, {"measurement": "cures", "setting": "MDA-MB-231 tumors; FA-deficient mice, CAR-T cells plus EC17", "value": "5/5"}, {"measurement": "symptoms of CRS", "setting": "MDA-MB-231 tumors; FA-replete diet, eight weekly EC17 doses of 500 nmol/kg", "value": "did not show symptoms of CRS"}, {"measurement": "complete responses", "setting": "MDA-MB-231 tumors; [2]", "value": "2/5"}, {"measurement": "cures", "setting": "MDA-MB-231 tumors; [2]", "value": "2/5"}, {"measurement": "partial response", "setting": "MDA-MB-231 tumors; [2]", "value": "1/5"}, {"measurement": "CRS or body weight loss after first full dose", "setting": "MDA-MB-231 tumors; ~10 million clinical facsimile E2-CAR-T cells, EC17 500 nmol/kg, either diet", "value": "did not cause any CRS or body weight loss"}]}
